Data as given in patent US9029414B2, “Triterpenoid compounds and methods of use thereof” (Biotechnology Research Corporation, priority 2008, dated 2015).

Experiments:
ischemic rats = assay: MCAO (middle carotid artery occlusion) transient focal ischemia model; type: in vivo
Experimental: The MCAO (middle carotid artery occlusion model) was performed to investigate the protective effects of DA001 on the brain when the brain was exposed to transient focal ischemia (or lack of oxygen) such as during a stroke. Hemispheric brain swelling and infarct volume (the area of dead tissue caused by inadequate blood supply) was measured for test subjects treated with the compound 6 hours after ischemia and compared to that of the control group.
The MCAO (middle carotid artery occlusion model) was performed to investigate the protective effects of DA001 on the brain when exposed to transient focal ischemia (or lack of oxygen) such as during a stroke. Neurological scores, hemispheric brain swelling and infarct volume (the area of dead tissue caused by inadequate blood supply) was measured in test subjects treated with the compound 6 hours after ischemia and compared to that of the control group. DA001 effectively attenuated neurological deficits, reduced infarct volume (the area of dead tissue caused by inadequate blood supply), especially in brain slices number 3 to 5, and the extent of edema during ischemic conditions as shown in FIG. 2.

[1] = system: NGF, BDNF, NT-3 and NT-4 expression in cortical neurons; assay: Neurotrophin gene expression (real-time PCR) in cortical neurons following NMDA treatment; type: cell-based; conditions: 24 hrs pre-treatment, then NMDA 20 μM 20 min; vs DMSO+NMDA
Experimental: Cortical neurons were incubated with DA001 or the DMSO control for 24 hrs, followed by treatment with NMDA (20 μM) or water for 20 min. Gene expression was normalized against the house-keeping gene, hypoxanthine phosphoribosyltransferase 1 (HPRT1) and glyceraldehyde 3-phosphate dehydrogenase (GAPDH) and compared to the control (DMSO) with NMDA treatment. Relative changes in gene expression induced by DA001+NMDA was compared with DMSO+NMDA.
Cortical neurons of 11 DIV-12 DIV were pre-incubated with DA001 or DMSO for 24 hours. Cells were washed in Locke's medium without magnesium for 15 min, followed by the treatment of NMDA (20 μM) or water for 20 min. Neurons were incubated with normal growth medium and total RNA were extracted at different time intervals after or without NMDA treatment. Total RNA was extracted using RNeasy Mini kit (Qiagen) according to the manufacturer's protocol, and was reverse-transcribed into single-stranded cDNA with SuperScript II Reverse Transcriptase (Invitrogen) and oligo-dT primers. Real-time Quantitative PCR was performed using Power SYBR Green PCR Master Mix (Applied Biosystems) on the Mx3000P Real-Time PCR System (Stratagene). Thermal cycling was initiated with a 10-min denaturation step at 95° C., followed by 40 cycles of 95° C. for 30 sec, 60° C. for 1 min and 72° C. for 30 sec. The final product was subjected to a Meltcurve detection at the end of the reaction. Regulation of the gene expression was normalized against home gene, hypoxanthine phosphoribosyltransferase 1 (HPRT1) and glyceraldehyde 3-phosphate dehydrogenase (GAPDH). Real-time PCR primers are as follows.
Cortical neurons were pre-treated with DA001 after which the cells were subjected to NMDA insult. The expression of neurotrophins was measured at three different time intervals. DA001 induced NGF, BDNF and NT-3 expression but not NT-4 under the same conditions. FIG. 3 illustrates that cortical neurons were incubated with DA001 or the DMSO control for 24 hrs, followed by treatment with NMDA (20 μM) or water for 20 min. […]

hippocampal neurons = assay: Hippocampal neuron survival assay against glutamate excitotoxicity (LDH); type: cell-based, Sprague-Dawley rats; conditions: 30 μM 24 hrs, glutamate 10-200 μM 20 min
Experimental: Hippocampal neurons/cortical neurons were prepared from embryonic day 18 Sprague-Dawley rats. After the cortices had been removed from the brain, isolated cells were plated onto Poly d-Lysine (PDL) (P0899, Sigma)-coated 48 well plates (150687, NUNC) at a density of 2×10^5 cell per well using Neurobasal Medium (NB) (21103-049, Gibco) with B27 supplement (17504-044, Gibco), penicillin/streptomycin (15140, Gibco) and 1 mM L-glutamine (25030, Gibco). The cell culture was incubated at 37° C. in a humidified atmosphere of 5% CO2 in air. Medium was changed to growth medium (Neurobasal Medium with penicillin/streptomycin and B27 supplement) after 3 hours. Half medium was changed with growth medium every 2-3 days to maintain the cells until day 10 in vitro (DIV 10). Serial dilutions of samples were prepared in growth medium and DMSO was used as vehicle control. For pre-treating assay, half of the medium was removed from wells, and equal amount of diluted samples were replaced. Cells were then incubated for 2 hours at 37° C. in a humidified atmosphere of 5% CO2 in air. […] Afterwards, cells were incubated in growth medium for 18-24 hours and detected with Cytotoxicity Detection Kit (1644793, Roche).
Hippocampal neurons were treated with DA021 and subsequently subjected to varying concentrations of glutamate. […] LDH release into the medium was then measured.

Structure (SMILES)	total infarction of MCAO rats (ischemic rats; 12.6 mg/kg and 25.2 mg/kg orally 6 h post-ischemia)	extent of edema (ischemic rats; 42 mg/kg)	neurological scores of ischemic rats (ischemic rats; 12.6 and 25.2 mg/kg orally 6 h post-ischemia)	BDNF expression [1]	NGF expression [1]	NT-3 expression [1]	protection from glutamate-induced excitotoxicity (LDH release) (hippocampal neurons)
C=C(C)[C@@H]1CC[C@]2(C(=O)O)CC[C@]3(C)C(CC[C@@H]4[C@@]5(C)CC[C@H](O[C@@H]6OC[C@H](O)[C@H](O)[C@H]6O[C@@H]6O[C@@H](C)[C@H](O)[C@@H](O)[C@H]6O)[C@@](C)(CO)[C@@H]5CC[C@]43C)[C@@H]12 (stereo partly drawn) [DA001, 3-O-[α-L-rhamnopyranosyl-(1→2)-α-L-arabinopyranosyl]-3,23-dihydroxy-20(29)-lupen-28-oic acid]	significantly decreased	reduced the extent of edema	significantly improved	induced	induced	induced	
C=C(C)[C@@H]1CC[C@]2(/C=N/O)CC[C@]3(C)C(CCC4[C@@]5(C)CCC(=O)[C@@](C)(CO)[C@@H]5CC[C@]43C)C12 (stereo partly shown) [DA021]							protects neurons against differing concentrations of glutamate
